What all share (assay): Qube automated patch-clamp assay, inhibition of sodium current
Holding throughout (assay type): cell-based
(Patch clamp records ionic current or voltage across a cell membrane.)

Test [1] concerns the target T1, human Nav1.6 channels stably expressed in HEK 293 cells (Homo sapiens, UniProt Q9UQD0).
T1 construct: expressed in transfected cells; host or cells: HEK 293
The settings on record: holding potential −65 mV; max concentration tested 33750 nM. The protocol:
(§1) Qube™ Experimental Procedure:
(§2) Compounds were tested on human Nav1.7 and Nav1.6 channels stably expressed in HEK 293 cells. […] Cells were sealed on a planar substrate using the multihole technology. Cells expressing human Nav1.7 channels were held at −75 mV or −80 mV. Cells expressing human Nav1.6 channels were held at −65 mV. A train of 6 consecutive test pulses to −10 mV, preceded by 8 s prepulses to −115 mV, was applied at a frequency of 0.1 Hz before and after compound addition. Cells in each Qchip well were incubated in compound for 5 minutes before measuring inhibition. Peak currents were measured in control conditions and after compound addition. The following recording solutions were used (mM). External Nav1.6: 150 NaCl, 2 CaCl2), 5 KCl, 1 Mg Cl2, 10 HEPES, 12 Dextrose; external Nav1.7: 40 NaCl, 120 NMDG, 1 KCl, 0.5 MgCl2, 5 HEPES, 2.7 CaCl2); internal: 120 CsF, 30 CsCl, 10 EGTA, 5 HEPES, 5 NaF, 2 MgCl2. Compounds were prepared as 10 mM stock solutions in DMSO. 10 point compound titrations were generated using the Echo acoustic liquid handling instrument and glass coated 384 well plates. The final DMSO concentration in the assay was 0.3%. For all electrophysiology experiments, offline analysis was used to determine percent inhibition as a function of drug concentration. IC50 values were determined by fitting to the Hill equation.
(§3) The various compounds in EXAMPLES 1 through 43 and TABLE 2 exemplified above were assayed for activity and selectivity using the foregoing Qube® technique. The results are reported in TABLE 3 in a format expressing the identification of the compound with reference EXAMPLE followed by the observed potency in nM for NaV1.7, NaV1.6 and NaV1.5. NA signifies not applicable and the max concentration tested is 33750 nM.

For test [2], the target named is T2, human Nav1.7 channels stably expressed in HEK 293 cells (Homo sapiens, UniProt Q15858).
T2 construct: expressed in transfected cells; host or cells: HEK 293
As to conditions: max concentration tested 33750 nM, read-out: NaV1.7 (nM). The protocol:
as §1, §2, §3

Another test has as its target NaV1.5 (Homo sapiens, UniProt Q14524). As to conditions: holding potential −80 mV; max concentration tested 33750 nM. The protocol:
as §2, §3

Where [3] appears, read: holding potential −75 mV, −75 mV.
Where [4] appears, read: holding potential −80 mV, −80 mV.

Like-named read-outs stand apart in the source and are kept apart here.

T1 sequence (Q9UQD0 whole entry): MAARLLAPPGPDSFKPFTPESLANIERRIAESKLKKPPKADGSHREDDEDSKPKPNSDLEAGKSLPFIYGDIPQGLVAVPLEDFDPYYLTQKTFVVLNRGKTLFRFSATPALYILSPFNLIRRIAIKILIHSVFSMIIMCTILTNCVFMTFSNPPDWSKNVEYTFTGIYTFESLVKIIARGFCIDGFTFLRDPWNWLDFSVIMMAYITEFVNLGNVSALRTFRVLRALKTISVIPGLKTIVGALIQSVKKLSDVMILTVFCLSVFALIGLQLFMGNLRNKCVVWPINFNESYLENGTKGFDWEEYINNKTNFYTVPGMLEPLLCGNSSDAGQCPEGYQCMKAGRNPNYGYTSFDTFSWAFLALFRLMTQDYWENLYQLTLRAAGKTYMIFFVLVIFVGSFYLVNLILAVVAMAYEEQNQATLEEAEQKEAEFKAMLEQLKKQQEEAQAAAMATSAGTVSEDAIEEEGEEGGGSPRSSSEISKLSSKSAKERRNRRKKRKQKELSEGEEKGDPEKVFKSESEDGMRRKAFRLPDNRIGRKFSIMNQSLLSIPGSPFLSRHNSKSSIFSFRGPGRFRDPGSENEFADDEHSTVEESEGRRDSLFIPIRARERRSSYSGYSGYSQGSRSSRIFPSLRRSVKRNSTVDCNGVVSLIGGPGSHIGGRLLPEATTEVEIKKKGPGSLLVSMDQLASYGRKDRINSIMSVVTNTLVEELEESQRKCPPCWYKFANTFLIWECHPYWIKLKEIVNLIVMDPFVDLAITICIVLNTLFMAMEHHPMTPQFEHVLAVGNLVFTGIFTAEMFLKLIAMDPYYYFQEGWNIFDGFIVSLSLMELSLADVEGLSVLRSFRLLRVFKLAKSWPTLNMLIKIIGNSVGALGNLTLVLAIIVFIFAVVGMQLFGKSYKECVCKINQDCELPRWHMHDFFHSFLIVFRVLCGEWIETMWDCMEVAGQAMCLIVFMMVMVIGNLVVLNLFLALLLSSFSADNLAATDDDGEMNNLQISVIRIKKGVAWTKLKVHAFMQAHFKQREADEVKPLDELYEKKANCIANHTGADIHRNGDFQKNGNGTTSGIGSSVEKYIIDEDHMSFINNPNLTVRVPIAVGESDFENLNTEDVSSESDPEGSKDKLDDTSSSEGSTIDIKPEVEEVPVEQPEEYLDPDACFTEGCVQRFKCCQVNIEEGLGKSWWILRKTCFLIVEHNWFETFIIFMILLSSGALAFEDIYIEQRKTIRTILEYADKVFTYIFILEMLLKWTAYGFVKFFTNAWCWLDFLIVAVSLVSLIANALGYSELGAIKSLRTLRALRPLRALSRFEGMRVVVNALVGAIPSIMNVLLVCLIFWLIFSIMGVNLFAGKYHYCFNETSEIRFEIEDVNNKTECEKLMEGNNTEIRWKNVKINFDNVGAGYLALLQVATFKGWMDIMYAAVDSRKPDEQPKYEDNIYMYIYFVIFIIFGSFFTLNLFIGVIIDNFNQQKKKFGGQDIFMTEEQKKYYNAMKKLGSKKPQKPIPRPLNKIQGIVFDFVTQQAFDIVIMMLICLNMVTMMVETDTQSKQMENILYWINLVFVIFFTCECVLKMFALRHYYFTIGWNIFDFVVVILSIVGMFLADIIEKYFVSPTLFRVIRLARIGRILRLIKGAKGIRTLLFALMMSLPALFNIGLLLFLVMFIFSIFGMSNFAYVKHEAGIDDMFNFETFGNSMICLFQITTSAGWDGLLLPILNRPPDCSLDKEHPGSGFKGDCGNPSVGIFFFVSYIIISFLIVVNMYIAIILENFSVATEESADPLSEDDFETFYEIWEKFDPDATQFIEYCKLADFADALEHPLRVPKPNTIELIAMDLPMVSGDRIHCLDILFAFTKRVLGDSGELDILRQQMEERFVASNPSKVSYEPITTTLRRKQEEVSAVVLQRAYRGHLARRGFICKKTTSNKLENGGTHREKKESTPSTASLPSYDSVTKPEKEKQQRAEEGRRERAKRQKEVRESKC
Sequence of NaV1.5 (Q14524 whole entry): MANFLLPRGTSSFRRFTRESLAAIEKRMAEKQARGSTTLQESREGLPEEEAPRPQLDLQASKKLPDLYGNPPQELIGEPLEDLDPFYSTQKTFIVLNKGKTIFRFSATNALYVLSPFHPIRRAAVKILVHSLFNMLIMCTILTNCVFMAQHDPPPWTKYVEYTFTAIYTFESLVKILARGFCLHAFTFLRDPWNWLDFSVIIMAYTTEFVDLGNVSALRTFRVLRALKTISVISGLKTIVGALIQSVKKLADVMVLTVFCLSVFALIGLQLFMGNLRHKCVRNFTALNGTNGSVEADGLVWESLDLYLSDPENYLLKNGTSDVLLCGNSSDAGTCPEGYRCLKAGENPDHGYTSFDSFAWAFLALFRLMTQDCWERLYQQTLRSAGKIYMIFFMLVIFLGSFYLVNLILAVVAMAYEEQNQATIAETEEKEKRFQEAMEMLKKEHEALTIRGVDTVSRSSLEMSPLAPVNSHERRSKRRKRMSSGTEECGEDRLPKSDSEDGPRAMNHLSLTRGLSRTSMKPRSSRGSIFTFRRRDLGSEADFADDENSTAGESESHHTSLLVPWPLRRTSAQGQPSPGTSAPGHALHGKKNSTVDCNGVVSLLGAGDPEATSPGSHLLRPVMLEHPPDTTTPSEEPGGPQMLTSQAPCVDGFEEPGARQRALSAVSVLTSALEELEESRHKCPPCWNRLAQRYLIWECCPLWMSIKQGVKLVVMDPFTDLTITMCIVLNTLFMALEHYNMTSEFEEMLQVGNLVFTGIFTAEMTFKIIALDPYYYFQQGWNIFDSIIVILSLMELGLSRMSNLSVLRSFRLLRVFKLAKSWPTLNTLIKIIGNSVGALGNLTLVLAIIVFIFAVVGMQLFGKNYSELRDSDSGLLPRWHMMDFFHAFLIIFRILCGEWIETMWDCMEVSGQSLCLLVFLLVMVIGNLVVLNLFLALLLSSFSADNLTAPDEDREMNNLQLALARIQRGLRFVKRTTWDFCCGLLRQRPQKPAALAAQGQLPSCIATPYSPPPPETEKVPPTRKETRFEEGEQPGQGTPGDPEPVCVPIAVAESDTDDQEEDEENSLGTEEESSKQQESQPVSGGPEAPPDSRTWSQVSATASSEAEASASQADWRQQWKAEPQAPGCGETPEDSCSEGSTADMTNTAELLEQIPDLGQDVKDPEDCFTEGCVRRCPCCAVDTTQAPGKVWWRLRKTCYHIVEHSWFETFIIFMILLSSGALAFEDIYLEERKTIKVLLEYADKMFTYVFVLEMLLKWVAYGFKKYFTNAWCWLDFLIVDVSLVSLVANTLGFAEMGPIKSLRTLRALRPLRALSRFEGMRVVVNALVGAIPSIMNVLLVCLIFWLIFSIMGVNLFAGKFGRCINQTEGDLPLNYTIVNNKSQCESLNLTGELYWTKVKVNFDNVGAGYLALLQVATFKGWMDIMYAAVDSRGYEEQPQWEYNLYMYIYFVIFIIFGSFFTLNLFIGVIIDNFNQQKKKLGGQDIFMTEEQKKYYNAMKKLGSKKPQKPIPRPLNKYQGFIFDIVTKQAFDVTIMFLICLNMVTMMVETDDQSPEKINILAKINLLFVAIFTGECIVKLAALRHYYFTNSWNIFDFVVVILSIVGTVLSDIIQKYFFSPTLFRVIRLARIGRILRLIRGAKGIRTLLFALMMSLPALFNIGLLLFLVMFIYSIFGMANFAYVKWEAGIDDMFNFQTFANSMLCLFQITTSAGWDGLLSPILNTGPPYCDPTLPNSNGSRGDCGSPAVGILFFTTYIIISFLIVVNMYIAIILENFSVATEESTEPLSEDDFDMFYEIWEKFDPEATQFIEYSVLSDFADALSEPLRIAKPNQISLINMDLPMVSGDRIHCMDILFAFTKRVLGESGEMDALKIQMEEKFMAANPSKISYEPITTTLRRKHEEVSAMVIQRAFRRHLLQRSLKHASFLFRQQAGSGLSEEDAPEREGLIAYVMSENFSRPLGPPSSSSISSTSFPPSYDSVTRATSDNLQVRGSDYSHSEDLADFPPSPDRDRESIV

As to `C[C@@H](N)[C@H](CNc1cc(F)c(S(=O)(=O)Nc2ncns2)cc1Cl)CC(N)C(F)(F)F` (single isomer, unassigned) [Example 2], the IC50 in test [1] was 13800 nM; in test [2] (setting [3]), 84 nM; against NaV1.5, more than 33800 nM.
The corresponding values for `C[C@@H](N)C(CNc1cc(F)c(S(=O)(=O)Nc2ncns2)cc1Cl)CC(C)(C)CN` (single isomer, unassigned) [Example 3] are more than 33800 nM, 41 nM and more than 33800 nM.
Take `C[C@@H](N)C(CNc1cc(F)c(S(=O)(=O)Nc2ncns2)cc1F)CC1CC(C)(C)CN1` (single isomer, unassigned) [Example 17]: the IC50 in test [1] is more than 33800 nM; in test [2] (setting [4]), 113 nM; against NaV1.5 it was more than 33800 nM.
`C[C@@H](N)[C@H](CNc1ccc(S(=O)(=O)Nc2ncns2)c(F)c1)CC(CCN)C1CC1` (single isomer, unassigned) [Example 19]: the IC50 in test [1] was more than 33800 nM; in test [2] (setting [3]), 31 nM; at NaV1.5 it was more than 33800 nM.
Take `CC[C@@H](N)C(CNc1cc(F)c(S(=O)(=O)Nc2ncns2)c(F)c1F)CC1(CCN)CCC1` (single isomer, unassigned) [Example 22]: the IC50 in test [1] is 12100 nM; in test [2] (setting [4]), 26 nM; against NaV1.5 it was more than 33800 nM.
The corresponding values for `C[C@@H](N)C(CNc1cc(F)c(S(=O)(=O)Nc2ncns2)cc1F)CC1CCCC12CNC2` (single isomer, unassigned) [Example 25] are more than 33800 nM, 83 nM and more than 33800 nM.
Regarding `C[C@@H](N)C(CNc1cc(F)c(S(=O)(=O)Nc2ncns2)cc1F)C(N)C1CCC1` (single isomer, unassigned) [Example 34], the IC50 in test [1] is more than 33800 nM; in test [2] (setting [3]), 77 nM; on NaV1.5, more than 33800 nM.
With `CC(C)NCC(CNc1cc(F)c(S(=O)(=O)Nc2ncns2)cc1Cl)[C@@H](C)N` (single isomer, unassigned) [Example 36], the IC50 in test [1] is more than 33800 nM; in test [2] (setting [3]) it was 82 nM; against NaV1.5, more than 33800 nM.
In the case of `CC(C)N(CC(CNc1cc(F)c(S(=O)(=O)Nc2ncns2)cc1F)[C@@H](C)N)C[C@@H](C)N` (single isomer, unassigned) [Example 38], the IC50 in test [1] is more than 33800 nM; in test [2] (setting [3]) it was 109 nM; against NaV1.5, more than 33800 nM.
For `CC(C)N(CC(CNc1cc(F)c(S(=O)(=O)Nc2ncns2)cc1F)[C@@H](C)N)C[C@@H](C)N` (single isomer, unassigned) [Example 39], the values for the IC50 (in test [1]; in test [2] (setting [4]); against NaV1.5) were more than 33800 nM, 210 nM and more than 33800 nM, respectively.
`C[C@@H](N)[C@@H](CC(C)(C)CCN)C1CCc2cc(S(=O)(=O)Nc3ncns3)c(F)cc2O1` (single isomer, unassigned) [Example 42]: the IC50 in test [1] was more than 33800 nM; in test [2] (setting [4]), 306 nM; against NaV1.5 it was more than 33800 nM.
Regarding `C[C@@H](N)C(CNc1cc(F)c(S(=O)(=O)Nc2ncns2)cc1F)CC1CCCC1CN` (single isomer, unassigned) [Example 46], the IC50 in test [1] was more than 33800 nM; in test [2] (setting [4]), 57 nM; at NaV1.5 it was more than 33800 nM.
As to `C[C@@H](N)C(CNc1cc(F)c(S(=O)(=O)Nc2ncns2)cc1F)CC1(C)CCC1CN` (single isomer, unassigned) [Example 53], the IC50 in test [1] was more than 33800 nM; in test [2] (setting [4]), 165 nM; against NaV1.5, more than 33800 nM.
As to `C[C@@H](N)C(CNc1cc(F)c(S(=O)(=O)Nc2ncns2)cc1Br)CC1(CCN)CC(F)(F)C1` (single isomer, unassigned) [Example 57], the IC50 in test [1] is 224 nM; in test [2] (setting [4]), 10 nM; against NaV1.5, more than 33800 nM.
For `C[C@@H](N)C(CNc1ccc(S(=O)(=O)Nc2ncns2)c(F)c1)CC1(CCN)CC(F)(F)C1` (single isomer, unassigned) [Example 59], the IC50 in test [1] is more than 33800 nM; in test [2] (setting [4]), 38 nM; against NaV1.5, more than 33800 nM.
For `C[C@@H](N)C(CNc1cc(F)c(S(=O)(=O)Nc2ncns2)cc1F)CC1CCCCC1CCN` (single isomer, unassigned) [Example 60], the IC50 in test [1] was more than 33800 nM; in test [2] (setting [4]), 12 nM; at NaV1.5, 20600 nM.
For `C[C@@H](N)C(CNc1cc(F)c(S(=O)(=O)Nc2ncns2)cc1F)CC1CCCCC1CCN` (single isomer, unassigned) [Example 61], in that order: more than 33800 nM, 16 nM and more than 33800 nM.
For `C[C@@H](N)C(CNc1cc(F)c(S(=O)(=O)Nc2ncns2)cc1F)CC1CCCCC1CCN` (single isomer, unassigned) [Example 62], in that order: more than 33800 nM, 56 nM and more than 33800 nM.
For `C[C@@H](N)C(CNc1cc(F)c(S(=O)(=O)Nc2ncns2)cc1F)CC1CCCCC1CCN` (single isomer, unassigned) [Example 63], in that order: more than 33800 nM, 156 nM and more than 33800 nM.
As for `COC(CN)C[C@@H](CNc1cc(F)c(S(=O)(=O)Nc2ncns2)cc1Br)[C@@H](C)N` (single isomer, unassigned) [Example 81], the IC50 was more than 33800 nM in test [1] and 87 nM in test [2] (setting [4]).
As to `C[C@@H](N)C(CNc1ccc(S(=O)(=O)Nc2ncns2)cc1F)CC1(N)CCC1` (single isomer, unassigned) [Example 89], the IC50 in test [1] is more than 33800 nM; in test [2] (setting [3]), 274 nM.
For the compound `C[C@@H](N)C(COc1cc(F)c(S(=O)(=O)Nc2ncns2)cc1F)CC1(CCN)CCC1` (single isomer, unassigned) [Example 95], the IC50 in test [1] was more than 33800 nM; in test [2] (setting [4]) it was 4130 nM.
On to `C[C@@H](N)C(CNc1cc(F)c(S(=O)(=O)Nc2ncns2)cc1F)C[C@@]1(C)CCC[C@@H]1CN` (single isomer, unassigned) [Example 96], for which the IC50 in test [1] is more than 33800 nM; in test [2] (setting [3]) it was 618 nM.
As for `C[C@@H](N)C(CNc1cc(F)c(S(=O)(=O)Nc2ncns2)cc1F)C[C@]1(C)CCC[C@H]1CN` (single isomer, unassigned) [Example 98], the values for the IC50 in test [1] and in test [2] (setting [4]) were more than 33800 nM and 2360 nM, respectively.
The corresponding values for `C[C@@H](N)C(CNc1cc(F)c(S(=O)(=O)Nc2ncns2)cc1F)C[C@]1(C)CCC[C@H]1CN` (single isomer, unassigned) [Example 99] are more than 33800 nM and 450 nM.
`C[C@@H](N)C(CNc1cc(F)c(S(=O)(=O)Nc2ncns2)cc1Cl)CC1COCCN1` (single isomer, unassigned) [Example 101]: the IC50 in test [1] is more than 33800 nM; in test [2] (setting [3]), 84 nM.
For the compound `C[C@@H](N)C(CNc1cc(F)c(S(=O)(=O)Nc2ncns2)cc1Cl)CC1COCCN1` (single isomer, unassigned) [Example 104], the values for the IC50 in test [1] and in test [2] (setting [3]) were more than 33800 nM and 305 nM, respectively.
On to `CC(C)C(N)CC(CNc1cc(F)c(S(=O)(=O)Nc2ncns2)cc1Br)[C@@H](C)N` (single isomer, unassigned) [Example 108], for which the figures for the IC50 in test [1] and in test [2] (setting [3]) were more than 33800 nM and 17 nM, respectively.
The corresponding values for `C[C@@H](N)[C@H](CNc1ncc(S(=O)(=O)Nc2ncns2)cc1C(F)(F)F)CC(C)(C)CCN` [Example 13, 6-(((S)-6-amino-2-((R)-1-aminoethyl)-4,4-dimethylhexyl)amino)-N-(1,2,4-thiadiazol-5-yl)-5-(trifluoromethyl)pyridine-3-sulfonamide] are more than 33800 nM and 230 nM.
Consider `C[C@@H](N)[C@H](CNc1ncc(S(=O)(=O)Nc2ncns2)cc1C#N)CC(C)(C)CCN` [Example 31, 6-(((S)-6-amino-2-((R)-1-aminoethyl)-4,4-dimethylhexyl)amino)-5-cyano-N-(1,2,4-thiadiazol-5-yl)pyridine-3-sulfonamide], for which the IC50 in test [1] is more than 33800 nM; in test [2] (setting [3]), 205 nM.
For `C[C@@H](N)[C@H](CNc1cc(F)c(S(=O)(=O)Nc2cccc(F)n2)cc1Cl)CC1(N)CCC1` [Example 105], in that order: 8340 nM and 14 nM.
For `Cc1csc(NS(=O)(=O)c2cc(Cl)c(NC[C@H](CC(C)(C)N)[C@@H](C)N)cc2F)n1` [Example 106], in that order: more than 33800 nM and 133 nM.
The corresponding values for `Cc1cc(S(=O)(=O)Nc2ncc(F)s2)c(F)cc1NC[C@H](CC(C)(C)N)[C@@H](C)N` [Example 107] are 3590 nM and 17 nM.

The values above are taken from US12246008B2, “4-amino or 4-alkoxy-substituted aryl sulfonamide compounds with selective activity in voltage-gated sodium channels” (Merck Sharp & Dohme LLC, priority 2018, dated 2025).
